# Laboratory results from patent publication US6630499B1, “Control of arthropods in animals” (Aventis CropScience, S.A., priority 1998, dated 2003).
# Experiments:
# Type in all cases: in vivo
# [1] = Emesis in treated cats; settings: cats, 20 mg/kg
# Procedure: (§1) By the term “emesis” is meant vomiting. Generally an emetic substance elicits emesis in less than 24 hours after administration, usually less than 8 hours, more usually less than 2 hours. By the term “substantially non-emetic” is meant that, generally, when a compound or composition of the invention is administered to a population of animals, more than 70% (or at least ⅔) of the animals are free of emesis. Preferably, more than 80%, most preferably more than 90%, of said population is free of emesis.
# (§2) In the animals treated with the compounds above, there was substantially no emesis after 2, 8 and 24 hours. Generally long-term control of fleas and ticks was provided in dogs. In the cats treated, there was commercially acceptable control of fleas for at least one day post treatment.
# (§3) The compounds listed below were formulated and tested as described in Biological Example 1, again at the dosage level of active ingredient of 10 mg/kg in dogs and 20 mg/kg in cats. Results at 1 DPT (day post-treatment) are tabulated below, where the compound numbers are the same as those listed in Tables 1, 2, 4, 5, 6, 7, 8, 9, 10, 11, 12 and 13 hereinabove.
# [2] = Emesis in treated dogs; settings: dogs, 10 mg/kg
# Procedure: as §1, §2, §3
# [3] = test system: cat fleas (Ctenocephalides felis); assay: Control of cat fleas on treated cats (Biological Examples 1-3); settings: cats, 20 mg/kg, 30 mg/mL in 1:1 dimethyl sulfoxide/corn oil, 1 day post-treatment, versus placebo group
# Procedure: (§4) All dogs were infested with cat fleas (Ctenocephalides felis) and with ticks (Rhipicephalus sanguineus) 1 day prior to administration of the compound. Cats were only infested with fleas. The initial flea and tick counts were performed 1 day after the administration of the compounds. At 7, 14, 21 and 28 days after treatment the dogs were re-infested with ticks and 8, 15, 22 and 29 days after treatment the dogs and cats were re-infested with fleas. At 1, 9, 16, 23 and 30 days after treatment the control of fleas and ticks in treated dogs and cats was determined versus a group of infested dogs and cats which received a placebo consisting of a 1:1 volume/volume solution of dimethyl sulfoxide and corn oil. To determine the efficacies of the compounds, the arthropods were combed from the animals and counted.
# as §3
# (§5) Testing was carried out as described in Biological Example 1. […] The Huang et al compound was deemed to have insufficient activity to be tested in cats.
# [4] = test system: ticks (Rhipicephalus sanguineus); assay: Control of ticks on treated dogs (Biological Examples 1-3); settings: dogs, 10 mg/kg, 30 mg/mL in 1:1 dimethyl sulfoxide/corn oil, 1 day post-treatment, versus placebo group
# Procedure: as §4, §3, §5
# [5] = test system: cat fleas (Ctenocephalides felis); assay: Control of cat fleas on treated dogs (Biological Examples 1-3); settings: dogs, 10 mg/kg, 30 mg/mL in 1:1 dimethyl sulfoxide/corn oil, 1 day post-treatment, versus placebo group
# Procedure: as §4, §3, §5
smiles,measurement,setting,value
CCOCC(=O)N(C)c1c(SC(F)(F)F)c(C#N)nn1-c1c(Cl)cc(C(F)(F)F)cc1Cl [Compound 3-1],% Emesis,[1],0%
same,% Emesis,[2],0%
same,% Control 1 DPT (Fleas),[3],100%
same,% Control 1 DPT (Fleas/Ticks): Ticks,[4],96%
same,% Control 1 DPT (Fleas/Ticks): Fleas,[5],100%
CCOCC(=O)N(C)c1c(S(=O)(=O)C(F)(F)F)c(C#N)nn1-c1c(Cl)cc(C(F)(F)F)cc1Cl [Compound 3-5],% Emesis,[1],0%
same,% Emesis,[2],33%
same,% Control 1 DPT (Fleas),[3],100%
same,% Control 1 DPT (Fleas/Ticks): Ticks,[4],100/100%
same,% Control 1 DPT (Fleas/Ticks): Fleas,[5],100/100%
CC(C)N(C(=O)C1CCCO1)c1c(SC(F)(F)F)c(C#N)nn1-c1c(Cl)cc(C(F)(F)F)cc1Cl (stereo not shown) [Compound 3-7],% Emesis,[1],0%
same,% Emesis,[2],0%
same,% Control 1 DPT (Fleas),[3],100%
same,% Control 1 DPT (Fleas/Ticks): Ticks,[4],100/100%
same,% Control 1 DPT (Fleas/Ticks): Fleas,[5],100/100%
CCOCC(=O)N(c1c(SC(F)(F)F)c(C#N)nn1-c1c(Cl)cc(C(F)(F)F)cc1Cl)C1CC1 [Compound 3-12],% Emesis,[1],25%
same,% Emesis,[2],0%
same,% Control 1 DPT (Fleas),[3],97%
same,% Control 1 DPT (Fleas/Ticks): Ticks,[4],97%
same,% Control 1 DPT (Fleas/Ticks): Fleas,[5],99%
CC(C)OCC(=O)N(C)c1c([S+]([O-])C(F)(F)F)c(C#N)nn1-c1c(Cl)cc(C(F)(F)F)cc1Cl (stereo not shown) [Compound 4-3],% Emesis,[1],25%
same,% Emesis,[2],33%
same,% Control 1 DPT (Fleas),[3],100%
same,% Control 1 DPT (Fleas/Ticks): Ticks,[4],100/100%
same,% Control 1 DPT (Fleas/Ticks): Fleas,[5],100/100%
CCCN(C(=O)COCC)c1c(SC(F)(F)F)c(C#N)nn1-c1c(Cl)cc(C(F)(F)F)cc1Cl [Compound 13-1],% Emesis,[1],0%
same,% Emesis,[2],0%
same,% Control 1 DPT (Fleas),[3],61%
same,% Control 1 DPT (Fleas/Ticks): Ticks,[4],97%
same,% Control 1 DPT (Fleas/Ticks): Fleas,[5],99%
COCC(=O)N(CC1CC1)c1c(S(=O)(=O)C(F)(F)F)c(C#N)nn1-c1c(Cl)cc(C(F)(F)F)cc1Cl [Compound 27-5],% Emesis,[1],0%
same,% Emesis,[2],0%
same,% Control 1 DPT (Fleas),[3],100%
same,% Control 1 DPT (Fleas/Ticks): Ticks,[4],100/100%
same,% Control 1 DPT (Fleas/Ticks): Fleas,[5],100/100%
CC(=O)OCC(=O)N(C)c1c(SC(F)(F)F)c(C#N)nn1-c1c(Cl)cc(C(F)(F)F)cc1Cl [Compound 36-1],% Emesis,[1],25%
same,% Emesis,[2],0%
same,% Control 1 DPT (Fleas),[3],100%
same,% Control 1 DPT (Fleas/Ticks): Ticks,[4],92%
same,% Control 1 DPT (Fleas/Ticks): Fleas,[5],71%
COC(=O)N(C)c1c(SC(F)(F)F)c(C#N)nn1-c1c(Cl)cc(C(F)(F)F)cc1Cl [Compound 67-1],% Emesis,[1],0%
same,% Emesis,[2],33%
same,% Control 1 DPT (Fleas),[3],53%
same,% Control 1 DPT (Fleas/Ticks): Ticks,[4],100/100%
same,% Control 1 DPT (Fleas/Ticks): Fleas,[5],100/100%
"CCOC(=O)N(C)c1c(SC(F)(F)F)c(C#N)nn1-c1c(Cl)cc(C(F)(F)F)cc1Cl [Compound 68-1, 3-cyano-1-(2,6-dichloro-4-trifluoromethylphenyl)-5-(N-ethoxycarbonyl-N-methyl)amino-4-trifluoromethylthiopyrazole]",% Emesis,[1],0%
same,% Emesis,[2],0%
same,% Control 1 DPT (Fleas),[3],100%
same,% Control 1 DPT (Fleas/Ticks): Ticks,[4],77%
same,% Control 1 DPT (Fleas/Ticks): Fleas,[5],100%
CC(C)OC(=O)N(C)c1c(SC(F)(F)F)c(C#N)nn1-c1c(Cl)cc(C(F)(F)F)cc1Cl [Compound 69-1],% Emesis,[1],0%
same,% Emesis,[2],0%
same,% Control 1 DPT (Fleas),[3],100%
same,% Control 1 DPT (Fleas/Ticks): Ticks,[4],94%
same,% Control 1 DPT (Fleas/Ticks): Fleas,[5],98%
CCCOC(=O)N(C)c1c(SC(F)(F)F)c(C#N)nn1-c1c(Cl)cc(C(F)(F)F)cc1Cl [Compound 70-1],% Emesis,[1],0%
same,% Emesis,[2],0%
same,% Control 1 DPT (Fleas),[3],85%
same,% Control 1 DPT (Fleas/Ticks): Ticks,[4],100%
same,% Control 1 DPT (Fleas/Ticks): Fleas,[5],99%
CCN(C(=O)OC)c1c(SC(F)(F)F)c(C#N)nn1-c1c(Cl)cc(C(F)(F)F)cc1Cl [Compound 71-1],% Emesis,[1],50%
same,% Emesis,[2],0%
same,% Control 1 DPT (Fleas),[3],100%
same,% Control 1 DPT (Fleas/Ticks): Ticks,[4],100/100%
same,% Control 1 DPT (Fleas/Ticks): Fleas,[5],100/100%
CCOC(=O)N(CC)c1c(SC(F)(F)F)c(C#N)nn1-c1c(Cl)cc(C(F)(F)F)cc1Cl [Compound 72-1],% Emesis,[1],0%
same,% Emesis,[2],0%
same,% Control 1 DPT (Fleas),[3],99%
same,% Control 1 DPT (Fleas/Ticks): Ticks,[4],97%
same,% Control 1 DPT (Fleas/Ticks): Fleas,[5],100%
